A short description of series [1]: Optical characterization (emission spectrum, quantum yield, photostability). It is filed as physicochemical. The conditions noted are these: 808 nm excitation laser. The text has this:
The NIR fluorescence spectrum was taken using a home-built NIR spectroscopy setup. The excitation source was a 200-W ozone-free mercury/xenon lamp (Oriel), which was dispersed by a monochromator (Oriel) to generate an excitation line with a bandwidth of 15 nm. The excitation light was allowed to pass through the solution sample in a 1-mm-path cuvette (Starna Cells, Inc.), and the emission was collected in a transmission geometry. The […] was collected in the 790-1500 nm emission range. The emitted light was directed into a spectrometer (Acton SP2300i) equipped with a liquid-nitrogen-cooled InGaAs linear array detector (Princeton OMA-V). Spectra were corrected post-collection to account for the sensitivity of the detector and extinction feature of the filter. Photostability was determined by spiking CH1055-PEG into serum, PBS, and DI and exposing it in a 1-mm path length cuvette (Starna Cells, Inc.) to continuous 808 nm excitation at a power density of 0.3 W/cm^2 and taking images every 10 seconds for ˜1 hour. Stability was determined by measuring the ROI and comparing the fluorescence intensity to the starting fluorescence signal.
In order to further increase solubility, the carboxylic acid groups of CH1055 were PEGylated with 2 kDa PEG-NH2 through EDC/NHS chemistry.

Series [2] can be described thus: Photoacoustic imaging analysis of phantoms. It is filed as physicochemical. From the text:
For studying the PAI properties of the compound, a cuboid container was half filled with 1% agarose gel to half depth. Different concentrations of compounds aqueous solutions were filled into polyethylene capillaries and then the capillaries were laid on the surface of solidified agarose gel. The capillaries were further covered with thin 1% agarose gel to make the surface smooth. PA spectra and PA/US coregistered images were acquired with a LAZR commercial instrument (VevoLAZR; VisualSonics). It is equipped with a LZ-250 linear array transducer and a tunable Nd:YAG laser system (680-970 nm). In our system, the Vevo LAZR PAI System with a laser at excitation wavelength of 700 nm and a focal depth of 10 mm was used to acquire PA and US images. […] Acquisition rate of 5 frames per second was used for all the experiments. The photoacoustic gain was kept at 42 dB, dynamic range at 18 dB and center frequency of 21 MHz for all studies. US and PA images were obtained sequentially. The PA signals reported were the average pixel intensities from within the Regions of Interest (ROIs). Normalization and quantification of the images were carried out using ImageJ.
Fluorophores with the present design not only have NIR II fluorescence, but also show strong absorption in the NIR-I region and show promise for in vivo photoacoustic imaging. […]

A short description of a further series: Aqueous solubility. It is filed as physicochemical. The settings on record: water / PBS.
The test system of another series is human and bovine albumin. Description: Binding of CH-4T to serum proteins. The conditions noted are these: whole blood, HDL. How it is done:
(§1) This fluorescence enhancement produces a serum quantum yield of up to ˜10% which is on par with ICG and is among the highest quantum yields of all NIR-II fluorophores (including carbon nanotubes). While soluble in PBS, the quantum yield of CH-4T was determined to be ˜0.07%, yet is enhanced ˜60× through complexation with serum proteins in FBS.

Series [3] can be described thus: Preliminary animal imaging of CH-4T excretion. Format: in vivo. From the text: It is a small molecule dye similar to ICG, Cy5, and IR800, and enables easier access to NIR-II imaging, as it doesn't require a specialized knowledge of nanomaterials which make up the majority of NIR-II fluorophores.
Series [4] can be described thus: NIR-II fluorescence brightness and quantum yield in DI, PBS, FBS, serum and serum proteins. It is filed as physicochemical.
Text: The compound contains a taurine (2-aminoethanesulfonic acid) group at the carboxyl linkers of CH1055. […] Sulfonating the present NIR-II dyes is a general procedure that can be applied to a number of the NIR-II small molecules described above to increase their solubility.
The absorbance value of both fluorophores (OD 0.02) in each respective media is equivalent at the excitation wavelength (808 nm) to compare relative quantum yields. NIR-IIa fluorescent image of a C57 mouse brain (1300 LP) after an intravenous injection of equivalent doses of CH-4T (200 ms exposure; Panel B) and of CH1055-PEG (1 s exposure; Panel D). The image intensity scales have been compensated to account for the differences in the exposure times needed to clearly resolve brain vasculature.
as §1
Increased brightening of CH-4T also results from protein interactions. A fluorescence emission spectrum of CH1055-PEG and CH-4T in both FBS and PBS was determined. […] The increased intensity (40,000 a.u. around 1000 nm) for CH-4T in FBS was observed.
While CH-4T complexed with proteins produces an incredibly bright contrast agent, pretreatment of the proteins prior to complexation and subsequent isolation of the bright dye-protein complexes can introduce a further increase in brightness. For instance, a short 10 minutes of horn sonication of FBS prior to mixing with CH-4T followed by 10 minutes of heating in a hot water bath at ˜80° C. can boost the brightness of the CH-4T-protein complex by ˜3-4-fold. The effects on the fluorescence emission spectrum of heating and pre-horn sonicating can be seen while the brightness difference of an FBS-CH-4T solution before and after treatment (data not shown). […]

The test system of series [5] is shoulder xenograft U87MG tumors. Description: Lymph node / lymphatic vasculature and tumor imaging after intradermal injection. It is filed as in vivo, immunodeficient nude mice. The settings on record: intradermal injection near base of tail. The text has this: An emerging fluorescent imaging application of ICG currently undergoing clinical trials is in detecting sentinel lymph nodes (SLN) for surgical resection.(28-30) Selectively removing sentinel lymph nodes alleviates lymphedema and other ailments that would be caused by total lymph node removal performed to prevent cancer metastasis. Fluorescent imaging has many benefits compared to the more traditional detection means that include injecting a colored dye, a radioisotope, or a combination of both. ICG is typically injected near a tumor to visualize the lymphatic vessels draining the tumor as well as the sentinel lymph nodes. […] Immediately after injection, CH1055-PEG drainage into the internodal collecting lymphatic vasculature and the inguinal lymph node became apparent. […] (data not shown)
The gradual increase in fluorescence emanating from the tumor occurred while all lymphatic vessels and nodes were still visible.

With `O=C(O)CCc1ccc(N(c2ccc(CCC(=O)O)cc2)c2ccc(-c3c4c(c(-c5ccc(N(c6ccc(CCC(=O)O)cc6)c6ccc(CCC(=O)O)cc6)cc5)c5nsnc35)N=S=N4)cc2)cc1` [CH1055], in series [1], the “peak fluorescent emission wavelength” value is approximately 1055 nm. Moreover, the NIR-I absorption maximum in series [2] was found to be 700 nm. In series [2] (NIR pulsed laser, 680-970 nm scan), the “wavelength of maximum photoacoustic signal” value stood at 700 nm.
For `O=C(CCc1ccc(N(c2ccc(CCC(=O)NCCS(=O)(=O)O)cc2)c2ccc(-c3c4c(c(-c5ccc(N(c6ccc(CCC(=O)NCCS(=O)(=O)O)cc6)c6ccc(CCC(=O)NCCS(=O)(=O)O)cc6)cc5)c5nsnc35)N=S=N4)cc2)cc1)NCCS(=O)(=O)O` [CH-4T], the aqueous solubility entry in the series “Aqueous solubility” is listed as “highly soluble”. In addition, the “binding to serum proteins” value with human and bovine albumin is given as “strong binding”. Besides, the excretion kinetics entry in series [3] was “resemble that of ICG”. Also, the quantum yield in series [4] (in PBS) is given as approximately 0.07%; in series [4] (with treated FBS (sonicated, heated)), approximately 13%. In series [4] (in serum, complexed with serum proteins), this compound returned a serum quantum yield not above 10%.
Regarding `CC1(C)C(/C=C/C=C/C=C/C=C2\N(CCCCS(=O)(=O)O)c3ccc4ccccc4c3C2(C)C)=[N+](CCCCS(=O)(=O)[O-])c2ccc3ccccc3c21` [ICG, indocyanine green], in series [5], the “liver signal after intradermal injection” value is recorded as “obvious liver signal” and the “tumor fluorescence after intradermal injection” value is listed as “little tumor signal was observed”.

The values are drawn from patent US10124111B2, “Small molecule dye for molecular imaging and photothermal therapy” (The Board of Trustees of the Leland Stanford Junior …, priority 2015, dated 2018).
